Source: ChEMBL document CHEMBL1143514 (Bioorg Med Chem Lett, 2005)

Columns and labels:
[1] = molecular target: Cyclin-dependent kinase 4/cyclin D1 (Homo sapiens, UniProt P11802); assay: Inhibitory concentration against human Cyclin D1-cyclin-dependent kinase 4 was observed; assay type: protein-complex assay
[2] = molecular target: Cyclin-dependent kinase 1/cyclin B (Homo sapiens, UniProt P06493); assay: Inhibitory concentration against human Cyclin B-cyclin-dependent kinase 1 was observed; assay type: protein-complex assay
[3] = molecular target: Cyclin-dependent kinase 2/cyclin E (Homo sapiens, UniProt P24941); assay: Inhibitory concentration against human Cyclin E-cyclin-dependent kinase 2 was observed; assay type: protein-complex assay
HCT-116 = assay: Inhibitory concentration against proliferation of human HCT116 cells was observed by MTT assay; assay type: functional, cell-based

Sequence of Cyclin-dependent kinase 4/cyclin D1 (P11802 whole entry): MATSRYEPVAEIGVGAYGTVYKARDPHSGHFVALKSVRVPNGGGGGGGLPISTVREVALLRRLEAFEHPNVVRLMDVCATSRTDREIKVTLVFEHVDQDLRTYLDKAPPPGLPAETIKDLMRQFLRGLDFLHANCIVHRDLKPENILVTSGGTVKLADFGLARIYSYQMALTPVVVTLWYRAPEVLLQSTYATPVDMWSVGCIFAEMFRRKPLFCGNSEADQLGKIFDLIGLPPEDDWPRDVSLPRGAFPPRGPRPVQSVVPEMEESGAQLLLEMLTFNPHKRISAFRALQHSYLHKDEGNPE
Sequence of Cyclin-dependent kinase 4/cyclin D1 (P24385 whole entry, further chain): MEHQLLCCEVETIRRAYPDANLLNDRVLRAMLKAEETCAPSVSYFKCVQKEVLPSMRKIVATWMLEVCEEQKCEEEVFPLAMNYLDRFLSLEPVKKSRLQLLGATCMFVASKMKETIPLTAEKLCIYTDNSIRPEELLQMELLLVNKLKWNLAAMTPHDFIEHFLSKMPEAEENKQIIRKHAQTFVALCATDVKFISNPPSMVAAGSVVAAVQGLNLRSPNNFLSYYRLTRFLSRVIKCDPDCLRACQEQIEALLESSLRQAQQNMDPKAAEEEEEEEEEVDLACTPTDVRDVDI

| SMILES | IC50 [1] | IC50 [2] | IC50 [3] | IC50 (HCT-116) |
| --- | --- | --- | --- | --- |
| O=C(NS(=O)(=O)c1ccc(Nc2cn3cc(C(=O)c4c(Cl)cccc4Cl)ccc3n2)cc1)c1ccccc1 | 3840 nM | 250 nM | 670 nM | – |
| N=C(N)NS(=O)(=O)c1ccc(Nc2cn3cc(C(=O)c4c(Cl)cccc4Cl)ccc3n2)cc1 | 1290 nM | 160 nM | 250 nM | – |
| NC(=O)c1cccc(Nc2cn3cc(C(=O)c4c(Cl)cccc4Cl)ccc3n2)c1 | 3950 nM | 1920 nM | 2720 nM | – |
| O=C(c1ccc2nc(Nc3ccncc3)cn2c1)c1c(Cl)cccc1Cl | > 20000 nM | > 20000 nM | > 20000 nM | – |
| CN(C)S(=O)(=O)c1ccc(Nc2cn3cc(C(=O)c4c(Cl)cccc4Cl)ccc3n2)cc1 | 2160 nM | 970 nM | 1540 nM | – |
| NC(=O)c1ccc(Nc2cn3cc(C(=O)c4c(Cl)cccc4Cl)ccc3n2)cc1 | 1610 nM | 580 nM | 1630 nM | – |
| NS(=O)(=O)c1ccc(Nc2cn3cc(C(=O)c4c(Cl)cccc4Cl)ccc3n2)cc1 | 1340 nM | 390 nM | – | 5500 nM |

Now from value to molecule:

| IC50 [1] | IC50 [2] | IC50 [3] | IC50 (HCT-116) | SMILES |
| --- | --- | --- | --- | --- |
| 1220 nM | 520 nM | 1210 nM | – | CS(=O)(=O)c1ccc(Nc2cn3cc(C(=O)c4c(Cl)cccc4Cl)ccc3n2)cc1 |
| 4990 nM | 450 nM | 740 nM | – | O=C(O)c1ccc(Nc2cn3cc(C(=O)c4c(Cl)cccc4Cl)ccc3n2)cc1 |
| 11900 nM | 4800 nM | 17700 nM | – | CSc1cccc(Nc2cn3cc(C(=O)c4c(Cl)cccc4Cl)ccc3n2)c1 |
| > 20000 nM | 9260 nM | 12100 nM | – | CN(C)S(=O)(=O)c1cccc(Nc2cn3cc(C(=O)c4c(Cl)cccc4Cl)ccc3n2)c1 |
| 7400 nM | 3040 nM | 13800 nM | – | CSc1ccc(Nc2cn3cc(C(=O)c4c(Cl)cccc4Cl)ccc3n2)cc1 |
| 3140 nM | 1700 nM | 2860 nM | – | CS(=O)(=O)c1cccc(Nc2cn3cc(C(=O)c4c(Cl)cccc4Cl)ccc3n2)c1 |
| > 20000 nM | > 20000 nM | > 20000 nM | – | O=C(c1ccc2nc(Nc3ccc(Oc4ccccc4)cc3)cn2c1)c1c(Cl)cccc1Cl |
